Target: urokinase (UK) (Homo sapiens, UniProt P00749)
Assay: Measuring method of UK blocking rate (S2444 substrate, absorbance 405 nm)
Assay type: biochemical
Details: ion concentration 100 ppm; Tris-HCl buffer pH7.5
Method: About the complex powder of this invention, zinc oxide elutes zinc ion and inactivates plasminogen activator. UK is a kind of plasminogen activator. Measuring method of UK blocking rate. […] Thereafter, 20 μL of 12% trichloroacetic acid solution is added to stop the reaction, and powder is filtered. Absorbance of the filtrate at 405 nm is measured to obtain UK activity in an assessment system and UK blocking rate of the sample is calculated.

Structure (SMILES)	UK blocking rate (%)
[K+] [K^+]	0
[Co+2] [Co^2+]	27
[Ce+3] [Ce^3+]	5
[Cu+2] [Cu^2+]	36
[Li+] [Li^+]	0
[Ni+2] [Ni^2+]	30
[Ba+2] [Ba^2+]	0
[Al+3] [Al^3+]	16
[Ca+2] [Ca^2+]	0

Continued, values first:

UK blocking rate (%)	Structure (SMILES)
0	[Mn+2] [Mn^2+]
45	[Zr+4] [Zr^4+]
0	[Mg+2] [Mg^2+]
52	[Zn+2] [Zn^2+, zinc ion]
0	[Na+] [Na^+]

From patent US8062671B2, “Oily skin preparation for external use” (Shiseido Co., Ltd., priority 2003, dated 2011)
